In ChEMBL document CHEMBL5726960, “Inhibiting neurotransmitter reuptake” (2018):
pKi: −log10 of the molar value.

Tests used:
[1] = target: Sodium-dependent noradrenaline transporter (Homo sapiens, UniProt P23975); assay: (§1) On the day of the experiment, the cells were removed from −80° C. or liquid nitrogen and thawed in a room temperature water bath. The cells were dilute to about 1-2E+06 with Freestyle medium. A 1 mL sample (1:2 dilution) was prepared, and the cells were counted. The cells were spun at 1100 rpm for 5 minutes, and the medium was aspirated off. The cells were resuspend in medium at 1.5E+06 cells/mL for about 60,000 cells per well. 40 μL of cells were dispensed per well in the Biocoat plates. The plates were spun at 1100 rpm for 1 minute to improve homogeneity of the cell layer and were incubated at 37° C. for a minimum of 3 hours.; format: cell-based
Chain of Sodium-dependent noradrenaline transporter (P23975 whole entry): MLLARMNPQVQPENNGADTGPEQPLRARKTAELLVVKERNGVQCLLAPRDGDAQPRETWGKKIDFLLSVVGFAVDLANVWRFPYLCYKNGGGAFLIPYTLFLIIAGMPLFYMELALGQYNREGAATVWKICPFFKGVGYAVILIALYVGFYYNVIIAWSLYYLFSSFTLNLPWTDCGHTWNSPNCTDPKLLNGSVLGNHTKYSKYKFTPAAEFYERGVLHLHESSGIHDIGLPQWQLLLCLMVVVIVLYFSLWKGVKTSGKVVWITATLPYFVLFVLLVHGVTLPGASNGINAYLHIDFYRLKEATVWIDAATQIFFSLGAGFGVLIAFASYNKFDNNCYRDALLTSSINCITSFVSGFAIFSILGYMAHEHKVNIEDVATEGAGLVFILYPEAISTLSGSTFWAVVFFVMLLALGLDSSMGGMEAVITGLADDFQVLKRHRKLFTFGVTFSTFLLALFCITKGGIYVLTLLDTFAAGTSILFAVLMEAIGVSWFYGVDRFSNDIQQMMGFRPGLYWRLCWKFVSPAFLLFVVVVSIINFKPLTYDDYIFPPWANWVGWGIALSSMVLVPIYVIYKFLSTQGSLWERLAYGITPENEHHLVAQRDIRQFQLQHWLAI

[2] = target: Sodium-dependent dopamine transporter (Homo sapiens, UniProt Q01959); assay: as §1, with “plates. […]” for “plates.”, “neurotransmitter transporter dye was prepared in AB prior” for “plates were spun at 1100 rpm for 1 minute”, “use.” for “improve homogeneity of the cell layer and were incubated at 37° C. for a minimum of 3 hours.”; format: cell-based
Chain of Sodium-dependent dopamine transporter (Q01959 whole entry): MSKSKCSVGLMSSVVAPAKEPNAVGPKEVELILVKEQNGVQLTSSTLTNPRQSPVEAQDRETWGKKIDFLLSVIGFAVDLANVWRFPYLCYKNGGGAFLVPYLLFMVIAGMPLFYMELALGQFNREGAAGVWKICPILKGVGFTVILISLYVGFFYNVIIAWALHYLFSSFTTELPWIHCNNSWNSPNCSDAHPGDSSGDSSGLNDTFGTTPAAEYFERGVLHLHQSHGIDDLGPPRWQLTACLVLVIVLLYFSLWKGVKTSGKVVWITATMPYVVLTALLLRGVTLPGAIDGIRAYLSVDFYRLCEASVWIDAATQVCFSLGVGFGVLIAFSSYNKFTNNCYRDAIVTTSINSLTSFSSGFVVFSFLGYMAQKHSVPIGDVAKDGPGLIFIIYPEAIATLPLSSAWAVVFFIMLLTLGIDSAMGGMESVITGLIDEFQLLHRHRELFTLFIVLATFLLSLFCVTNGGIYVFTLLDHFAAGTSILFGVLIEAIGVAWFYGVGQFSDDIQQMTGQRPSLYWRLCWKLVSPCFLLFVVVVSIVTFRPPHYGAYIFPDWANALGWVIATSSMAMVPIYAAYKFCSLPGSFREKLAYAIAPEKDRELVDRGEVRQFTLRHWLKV

**Q.** `CNCC(c1ccc(F)c(Cl)c1)[C@H](O)c1ccccc1` (some centres not stated) was tested. Which pKi [1] did it give?
**A.** 7.99

**Q.** And the pKi [2]?
**A.** 7.25
